From patent US10174013B2, “Benzimidazole derivatives as kinase inhibitors” (SELVITA S.A., priority 2012, dated 2019) come the findings set out here.

Where a name gives a salt, the structure may show the parent alone.

Series [1] relates to U-937. Kind of series: Combination study with anti-cancer agents, cell viability, U-937. To be noted: for Effect of combination: 72 hours.
Protocol: (§2) After this incubation, a cell viability assay was carried out according to the Manufacturer's instructions (CellTiter 96®AQueous Non-Radioactive Cell Proliferation Assay, Promega). The results were expressed as percentage of viable cells upon treatment with the individual drugs or the combination compared to the vehicle (DMSO) treated cells.
Series [2] addresses FLT3wt (Homo sapiens (Human), UniProt P36888). The experiment in a line: Binding to FLT3 wildtype (DiscoveRx).
The test system of series [3] is PC3. The experiment in a line: Combination study with anti-cancer agents, cell viability, PC3. The conditions noted are these: for Effect of combination: 72 hours.
Protocol: as §2
In series [4] the target is FLT3(D835H) (Homo sapiens (Human), UniProt P36888, D835H). Kind of series: Binding to FLT3(D835H) mutant (DiscoveRx). The protocol: (§1) Selected compounds were also tested for their binding properties against FLT3 kinase mutants using suitable in vitro assays (performed according to standard assays at DiscoveRx Corporation). The compounds show strong binding to the main oncogenic mutants of the FLT3 kinase, see Table 1B.

The target in series [5] is FLT3(ITD) (Homo sapiens, UniProt P36888, ITD). The experiment in a line: Binding to FLT3(ITD) mutant (DiscoveRx). The method, then:
as §1

Series [6] concerns MV4-11. Kind of series: Combination study with anti-cancer agents, cell viability, MV4-11. The conditions noted are these: for ED50 value in MV4-11: single agent, used as fixed concentration in combination study; for Effect of combination: 72 hours.
Protocol: as §2
The subject of series [7] is Pim kinase biomarkers in MV4-11 cells. The experiment in a line: Pim-kinase biomarkers in MV4-11 cells. The format is cell-based, Human. To be noted: 0.25-5 μM, 4 and 24 h. The protocol:
The efficacy of compounds 1A and 2A on Pim kinase-inhibition was tested in MV4-11 cells (see above). Cells were treated with each compound at concentrations of 0.25, 0.5, 1, 2.5 and 5 μM for 4 and 24 h. The positive control Ref A (the commercially available inhibitor SGI-1776 [obtained from Selleck Bio]) was used at a concentration of 5 μM. DMSO (Dimethyl sulfoxide) was used as a negative control. The levels of the following classical Pim-1 kinase biomarkers were assessed: c-Myc, phospho-4EBP1 (Ser65, Thr37&46) and phosphorylated S6 (Ser235). […] Also, the levels of pro-apoptotic and pro-survival biomarkers were assessed. First, induction of apoptosis, recognizable as an appearance and increased expression of cleaved form of the PARP protein, was observed, both at 4 and 24 hours after compound stimulation at high concentrations. […] Levels of tubulin were assessed as a reference loading control.
The efficacy of compound 1BI on Pim kinase-inhibition was tested in MV4-11 cells. The cells were treated with compound 1BI at concentrations of 0.25, 0.5, 1, 2.5 and 5 μM for 4 and 24 h. The positive controls Ref. A (SGI-1776, see above) and Ref. B (the commercially available inhibitor Sunitinib [obtained from Ark Pharm]) were used at 5 μM concentration. DMSO (Dimethyl sulfoxide) was used as a negative control. The levels of the following classical Pim-1 kinase biomarkers were assessed: c-myc, phospho-4EBP1 (Ser65, Thr37&46) and phosphorylated S6 (Ser235/236). […] The levels of pro-apoptotic and pro-survival biomarkers were also assessed. […] Levels of tubulin were assessed as a reference loading control.

Series [8] has as its target FLT3(D835Y) (Homo sapiens (Human), UniProt P36888, D835Y). The experiment in a line: Binding to FLT3(D835Y) mutant (DiscoveRx). The protocol: as §1
Series [9] has as its system HEL-92. The experiment in a line: Combination study with anti-cancer agents, cell viability, HEL-92. To be noted: for Effect of combination: 72 hours.
Protocol: as §2
The test system of series [10] is Mino. The experiment in a line: Combination study with anti-cancer agents, cell viability, Mino.
Protocol: as §2
For series [11], the system named is Pim kinase biomarkers in MOLM16 cells. Kind of series: Pim-kinase biomarkers in MOLM16 cells. The format is cell-based, Human. To be noted: 0.1-2.5 μM, 4 and 24 h. The method, then: The efficacy of compound 1BI on Pim kinase-inhibition was also tested in MOLM16 cells (an acute myeloid leukemia cell line). The cells were treated with compound 1BI at concentrations of 0.1, 0.25, 0.5, 1 and 2.5 μM for 4 and 24 h. The positive controls Ref. A (SGI-1776, see above) and Ref. B (Sunitinib, see above) were used at 5 μM concentration. DMSO (Dimethyl sulfoxide) was used as a negative control. The levels of the following classical Pim-1 kinase biomarkers were assessed: c-myc, phospho-4EBP1 (Scr65, Thr37&46) and phosphorylated S6 (Scr235/236). […] The levels of a pro-apoptotic biomarker were assessed; induction of apoptosis, presented as an appearance and increased expression of cleaved form of PARP protein, was observed. Levels of tubulin were assessed as a reference loading control.

For series [12], the system named is MOLM16 xenograft. Kind of series: MOLM16 xenograft in immunocompromised mice. The conditions noted are these: 100 mg/Kg QD. The format is in vivo. The text has this:
Several compounds of the present invention have been studied in a xenograft in mice, an in vivo tumor transplantation model used to investigate the factors involved in malignant transformation, invasion and metastasis, as well as to examine response to therapy. For the purpose of acceptance of donor leukemic cells (MV4-11 or MOLM16 cells), immunocompromised mice were used, namely particularly severely compromised immunodeficient mice (NOD/scid, SCID/beige). When tumors developed size of approx. 50-200 mm^3, the compounds as indicated below in Tables 3 and 3a were administered orally every day for 2-3 weeks, in once a day (QD) or twice a day (BID) schedule. During the course of the experiment, the mice were monitored and the following two parameters were measured: the tumor growth inhibition (TGI) factor as a measure of therapeutic efficacy and the body weight change (ΔBW) factor as a measure of possible compound toxicity. The results are depicted in Tables 3 and 3a.
Additionally, compound 2A, together with other examples was tested in MOLM16 cells xenografted into immunocompromised mice.

The test system of series [13] is MOLM-16. The experiment in a line: Combination study with anti-cancer agents, cell viability, MOLM-16. The conditions noted are these: for Effect of combination: MOLM-16 (Acute myeloid leukemia), 72 hours.
Protocol: as §2
Setting [14] is: single agent, used as fixed concentration in combination study.

`CCn1c(N2CCNCC2)nc2c([N+](=O)[O-])c(Br)c(Br)cc21` [Example 1A, 5,6-dibromo-1-ethyl-4-nitro-2-(piperazin-1-yl)-1H-1,3-benzodiazole hydrochloride]: the “ED50 value in U-937” value in series [1] (setting [14]) was determined as 6640 nM. The Effect of combination entry in series [1] (with ABT737, U937 (Histiocytic lymphoma)) is “Synergistic”; in series [1] (with Obatoclax, U937 (Histiocytic lymphoma)), “Synergistic”; in series [3] (with CAL-101, PC3 (Prostate cancer)), “Synergistic”; in [3] (with GDC-0941, PC3 (Prostate cancer)) it was “Synergistic/”; in [3] (with Rapamycin, PC3 (Prostate cancer)) it was “Synergistic”; in series [3] (with Wortmannin, PC3 (Prostate cancer)) it was “Synergistic”. The Effect of combination result is on record as “Synergistic” in series [6] (with CAL-101, MV4-11 (Acute myeloid leukemia)); “Synergistic” in series [9] (with CP690550, HEL92 (Erythroleukemia)); “Synergistic” in series [9] (with Cyt387, HEL92 (Erythroleukemia)); “Synergistic/” in [9] (with Ruxolitinib, HEL92 (Erythroleukemia)); “Synergistic” in [10] (with PD0332991, Mino (Mantle cell lymphoma), 72 hours). In addition, the Kd in series [2] turned out to be 400 nM; in [4], 120 nM; in series [5], 74 nM; in series [8] it was 46 nM. In addition, the “ED50 value in PC3” value in series [3] (setting [14]) was determined as 2910 nM. In series [6], the “ED50 value in MV4-11” value was found to be 500 nM. Further, the “Mcl-1 pro-survival protein level” value in series [7] is recorded as “dosed-dependent protein down-regulation”. Moreover, the “induction of apoptosis (cleaved form of PARP protein)” value (shortened to “induction of apoptosis”) in [7] is recorded as “observed”. The “levels of c-myc protein” value in [7] is reported as “downregulated”. Besides, the “levels of phosphorylated 4EBP1 (Ser65, Thr37&46)” value in [7] is on record as “downregulated”. In series [7], the “levels of phosphorylated S6” value is reported as “downregulated”. The “levels of phosphorylated p44/42 (Erk1/2), Flt3 biomarker” value in series [7] was “downregulated”. For the same molecule, the “ED50 value in HEL-92” value in series [9] (setting [14]) is 5460 nM. The “ED50 value in Mino” value in [10] (setting [14]) was 1700 nM.
Turning to `CC(C)n1c(N2CC[C@@H](N)C2)nc2c(C#N)c(Br)c(Br)cc21` [Example 1BI], in [7], the “Mcl-1 pro-survival protein level” value is given as “dosed-dependent protein down-regulation”; the “induction of apoptosis” value is “observed in the highest concentration at 4 hours”; the “levels of c-myc protein” value is listed as “down-regulated”; the “levels of phosphorylated 4EBP1 (Ser65, Thr37&46)” value is “down-regulated”. For the same molecule, in series [7], the “levels of phosphorylated S6” value is listed as “diminished almost completely” and the “levels of phosphorylated p44/42 (Erk1/2), Flt3 biomarker” value is reported as “downregulated”. Also, in series [11], the “induction of apoptosis” value is “observed”; the “levels of c-myc protein” value is “downregulated”; the “levels of phosphorylated 4EBP1 (Ser65 and Thr37/46)” value is on record as “downregulated”; the “levels of phosphorylated S6” value is “diminished completely”.
The molecule `CC(C)n1c(N2CCNCC2)nc2c([N+](=O)[O-])c(Br)c(Br)cc21` [Example 2A, 5,6-dibromo-4-nitro-2-(piperazin-1-yl)-1-(propan-2-yl)-1H-1,3-benzodiazole hydrochloride] showed a Kd in series [5] of 18 nM. For the same molecule, the “ΔBW (body weight change)” value in [12] is given as −8.6%. In addition, the “TGI (tumor growth inhibition)” value in series [12] (hydrochloride) is reported as above 99%.
Turning to `CC(C)n1c(C2CCNCC2)nc2c([N+](=O)[O-])c(Br)c(Br)cc21` [Example 26A, 5,6-dibromo-4-nitro-2-(piperidin-4-yl)-1-(propan-2-yl)-1H-1,3-benzodiazole], the “ED50 value in MV4-11” value in [6] amounted to 100 nM. In addition, the Effect of combination entry is recorded as “Synergistic” in series [6] (with C (Cytarabine), MV4-11 (Acute myeloid leukemia)); “Synergistic” in series [6] (with V (Vosaroxin), MV4-11 (Acute myeloid leukemia)); “Synergistic” in series [13] (with C (Cytarabine)); “Synergistic” in series [13] (with V (Vosaroxin)). Besides, in [13] (setting [14]), the “ED50 value in MOLM-16” value was 400 nM.

The term Kd denotes the free concentration of one partner at which half of the binding sites on the other are occupied at equilibrium, for simple one-to-one binding. Read a high Kd as a looser complex.
